Test results published in US8557763B2, “Synthetic peptides that enhance tight junction permeability” (Alba Therapeutics Corporation, priority 2007, dated 2013).
Where no end group is shown, it is not given here. [ ]: non-standard residue; d: D form. AllylGly = C=CC[C@H](N)C(=O)O

How the values were obtained:
Type in all cases: cell-based
CaCo2 monolayers [1] = assay: Lucifer Yellow (LY) permeability assay through CaCo2 monolayers; parameters: key to Enhanced LY permeability: + indicates an enhancement of the permeability of the tight junctions were observed; − indicates no enhancement of permeability was observed; settings: for Enhanced LY permeability: CaCo2 monolayers, Lucifer Yellow flux
CaCo2 monolayers [2] = assay: Trans Epithelial Electric Resistance (TEER) across CaCo2 monolayers; parameters: key to Reduced TEER: + indicates an enhancement of the permeability of the tight junctions were observed; − indicates no enhancement of permeability was observed; settings: for Reduced TEER: CaCo2 monolayers
HeLa cells = assay: Assay of cytoskeletal (actin) rearrangement, fluorescence microscopy; settings: 60 minutes, FIG. 11
Protocol: FIG. 10 is a fluorescence microscopy analysis showing the effects of FCIGRL (SEQ ID NO:1) and F-(Allyl)GIGRL (SEQ ID NO:2) on actin rearrangement in HeLa cells after 15 minutes and 60 minutes.
Gliadin treated with the peptidases pepsin and trypsin (termed PT-gliadin or PTG) induces a cytoskeletal arrangement in CaCo2 cells grown in monolayers. The rearrangement can be visualized using a Nikon-TE2000 epifluorescence microscope and a 40× objective and Alexa Fluor 555 conjugated phalloidin (Invitrogen, Carlsbad, Calif.), which binds specifically to F-actin. Exposure times were identical for control and agonist treated samples. The figures were generated using Adobe Photoshop CS2 v 9.0.2. The concentration of agonist was as indicated. Tight junction agonists can be identified by their ability to induce the cytoskeletal rearrangement as shown by the effects of peptide FCIGRL, a known tight junction agonist. FIGS. 3-6 and 8-11 show the cytoskeletal rearrangements induced by exemplary tight junction agonists of the invention, including with respect to the distribution of F-actin and the tight junction protein ZO-1.

| Substance | Enhanced LY permeability (CaCo2 monolayers [1]) | Reduced TEER (CaCo2 monolayers [2]) | enhancement of Lucifer Yellow permeability through CaCo2 monolayers (CaCo2 monolayers [1]; compared to vehicle alone) [fold] | decrease in TEER across CaCo2 monolayers (CaCo2 monolayers [2]; compared to vehicle alone) [fold] | actin rearrangement in HeLa cells (HeLa cells) |
| --- | --- | --- | --- | --- | --- |
| 59 (F[AllylGly]IGGL-NH2; N-terminus assumed; SMILES C=CC[C@H](NC(=O)[C@@H](N)Cc1ccccc1)C(=O)N[C@H](C(=O)NCC(=O)NCC(=O)N[C@@H](CC(C)C)C(N)=O)[C@@H](C)CC) [compound 59] | + | + |  |  |  |
| 62 (F[AllylGly]IGKL-NH2; N-terminus assumed; SMILES C=CC[C@H](NC(=O)[C@@H](N)Cc1ccccc1)C(=O)N[C@H](C(=O)NCC(=O)N[C@@H](CCCCN)C(=O)N[C@@H](CC(C)C)C(N)=O)[C@@H](C)CC) [compound 62] | + | + |  |  |  |
| 71 (F[AllylGly]IGPL-NH2; N-terminus assumed; SMILES C=CC[C@H](NC(=O)[C@@H](N)Cc1ccccc1)C(=O)N[C@H](C(=O)NCC(=O)N1CCC[C@H]1C(=O)N[C@@H](CC(C)C)C(N)=O)[C@@H](C)CC) [compound 71] | + | − |  |  |  |
| 72 (F[AllylGly]IGVL-NH2; N-terminus assumed; SMILES C=CC[C@H](NC(=O)[C@@H](N)Cc1ccccc1)C(=O)N[C@H](C(=O)NCC(=O)N[C@H](C(=O)N[C@@H](CC(C)C)C(N)=O)C(C)C)[C@@H](C)CC) [compound 72] | − | + |  |  |  |
| 73 (F[AllylGly]IGRH-NH2; N-terminus assumed; SMILES C=CC[C@H](NC(=O)[C@@H](N)Cc1ccccc1)C(=O)N[C@H](C(=O)NCC(=O)N[C@@H](CCCNC(=N)N)C(=O)N[C@@H](Cc1c[nH]cn1)C(N)=O)[C@@H](C)CC) [compound 73] | + | + |  |  |  |
| 74 (F[AllylGly]IGRD-NH2; N-terminus assumed; SMILES C=CC[C@H](NC(=O)[C@@H](N)Cc1ccccc1)C(=O)N[C@H](C(=O)NCC(=O)N[C@@H](CCCNC(=N)N)C(=O)N[C@@H](CC(=O)O)C(N)=O)[C@@H](C)CC) [compound 74] | + | + |  |  |  |
| 75 (F[AllylGly]IGRR-NH2; N-terminus assumed; SMILES C=CC[C@H](NC(=O)[C@@H](N)Cc1ccccc1)C(=O)N[C@H](C(=O)NCC(=O)N[C@@H](CCCNC(=N)N)C(=O)N[C@@H](CCCNC(=N)N)C(N)=O)[C@@H](C)CC) [compound 75] | + | − |  |  |  |
| 76 (F[AllylGly]IGRF-NH2; N-terminus assumed; SMILES C=CC[C@H](NC(=O)[C@@H](N)Cc1ccccc1)C(=O)N[C@H](C(=O)NCC(=O)N[C@@H](CCCNC(=N)N)C(=O)N[C@@H](Cc1ccccc1)C(N)=O)[C@@H](C)CC) [compound 76] | + | + |  |  |  |
| 77 (F[AllylGly]IGRA-NH2; N-terminus assumed; SMILES C=CC[C@H](NC(=O)[C@@H](N)Cc1ccccc1)C(=O)N[C@H](C(=O)NCC(=O)N[C@@H](CCCNC(=N)N)C(=O)N[C@@H](C)C(N)=O)[C@@H](C)CC) [compound 77] | + | − |  |  |  |
| 78 (F[AllylGly]IGRG-NH2; N-terminus assumed; SMILES C=CC[C@H](NC(=O)[C@@H](N)Cc1ccccc1)C(=O)N[C@H](C(=O)NCC(=O)N[C@@H](CCCNC(=N)N)C(=O)NCC(N)=O)[C@@H](C)CC) [compound 78] | + | − |  |  |  |
| 79 (F[AllylGly]IGRQ-NH2; N-terminus assumed; SMILES C=CC[C@H](NC(=O)[C@@H](N)Cc1ccccc1)C(=O)N[C@H](C(=O)NCC(=O)N[C@@H](CCCNC(=N)N)C(=O)N[C@@H](CCC(N)=O)C(N)=O)[C@@H](C)CC) [compound 79] | − | − |  |  |  |
| 80 (F[AllylGly]IGRE-NH2; N-terminus assumed; SMILES C=CC[C@H](NC(=O)[C@@H](N)Cc1ccccc1)C(=O)N[C@H](C(=O)NCC(=O)N[C@@H](CCCNC(=N)N)C(=O)N[C@@H](CCC(=O)O)C(N)=O)[C@@H](C)CC) [compound 80] | + | + |  |  |  |
| 82 (F[AllylGly]IGRY-NH2; N-terminus assumed; SMILES C=CC[C@H](NC(=O)[C@@H](N)Cc1ccccc1)C(=O)N[C@H](C(=O)NCC(=O)N[C@@H](CCCNC(=N)N)C(=O)N[C@@H](Cc1ccc(O)cc1)C(N)=O)[C@@H](C)CC) [compound 82] | + | + |  |  |  |
| 83 (F[AllylGly]IGRS-NH2; N-terminus assumed; SMILES C=CC[C@H](NC(=O)[C@@H](N)Cc1ccccc1)C(=O)N[C@H](C(=O)NCC(=O)N[C@@H](CCCNC(=N)N)C(=O)N[C@@H](CO)C(N)=O)[C@@H](C)CC) [compound 83] | − | − |  |  |  |
| 84 (F[AllylGly]IGRN-NH2; N-terminus assumed; SMILES C=CC[C@H](NC(=O)[C@@H](N)Cc1ccccc1)C(=O)N[C@H](C(=O)NCC(=O)N[C@@H](CCCNC(=N)N)C(=O)N[C@@H](CC(N)=O)C(N)=O)[C@@H](C)CC) [compound 84] | + | + |  |  |  |
| 85 (F[AllylGly]IGRM-NH2; N-terminus assumed; SMILES C=CC[C@H](NC(=O)[C@@H](N)Cc1ccccc1)C(=O)N[C@H](C(=O)NCC(=O)N[C@@H](CCCNC(=N)N)C(=O)N[C@@H](CCSC)C(N)=O)[C@@H](C)CC) [compound 85] | + | + |  |  |  |
| 86 (F[AllylGly]IGRK-NH2; N-terminus assumed; SMILES C=CC[C@H](NC(=O)[C@@H](N)Cc1ccccc1)C(=O)N[C@H](C(=O)NCC(=O)N[C@@H](CCCNC(=N)N)C(=O)N[C@@H](CCCCN)C(N)=O)[C@@H](C)CC) [compound 86] | + | − |  |  |  |
| 87 (F[AllylGly]IGRI-NH2; N-terminus assumed; SMILES C=CC[C@H](NC(=O)[C@@H](N)Cc1ccccc1)C(=O)N[C@H](C(=O)NCC(=O)N[C@@H](CCCNC(=N)N)C(=O)N[C@H](C(N)=O)[C@@H](C)CC)[C@@H](C)CC) [compound 87] | + | + |  |  |  |
| 88 (F[AllylGly]IGRW-NH2; N-terminus assumed; SMILES C=CC[C@H](NC(=O)[C@@H](N)Cc1ccccc1)C(=O)N[C@H](C(=O)NCC(=O)N[C@@H](CCCNC(=N)N)C(=O)N[C@@H](Cc1c[nH]c2ccccc12)C(N)=O)[C@@H](C)CC) [compound 88] | + | + |  |  |  |
| 89 (FXIGRP-NH2; not fully specified (residue 2); printed as Phe−Allylaly−Ile−Gly−Arg−Pro−NH2) [compound 89] | − | − |  |  |  |
| 90 (F[AllylGly]IGRV-NH2; N-terminus assumed; SMILES C=CC[C@H](NC(=O)[C@@H](N)Cc1ccccc1)C(=O)N[C@H](C(=O)NCC(=O)N[C@@H](CCCNC(=N)N)C(=O)N[C@H](C(N)=O)C(C)C)[C@@H](C)CC) [compound 90] | + | + |  |  |  |
| FCIGRL [SEQ ID NO: 1, Phe−Cys−Ile−Gly−Arg−Leu, reference compound] |  |  | 51 | 16 |  |
| Phe−AllylGly−Ile−Gly−Arg−Leu−OH [SEQ ID NO: 2] |  |  |  |  | actin cytoskeletal rearrangement to the borderline of cells |
